This is an account of results in patent publication US9890117B2, “Benzamide compounds and related methods of use” (Northwestern University, priority 2012, dated 2018).

The target in one data set is T1, SIRT2 (Homo sapiens, UniProt Q8IXJ6).
T1 construct: recombinant active enzymes SIRT1, SIRT2, and the catalytically active fragment of SIRT3
T1 sequence (Q8IXJ6 1-389): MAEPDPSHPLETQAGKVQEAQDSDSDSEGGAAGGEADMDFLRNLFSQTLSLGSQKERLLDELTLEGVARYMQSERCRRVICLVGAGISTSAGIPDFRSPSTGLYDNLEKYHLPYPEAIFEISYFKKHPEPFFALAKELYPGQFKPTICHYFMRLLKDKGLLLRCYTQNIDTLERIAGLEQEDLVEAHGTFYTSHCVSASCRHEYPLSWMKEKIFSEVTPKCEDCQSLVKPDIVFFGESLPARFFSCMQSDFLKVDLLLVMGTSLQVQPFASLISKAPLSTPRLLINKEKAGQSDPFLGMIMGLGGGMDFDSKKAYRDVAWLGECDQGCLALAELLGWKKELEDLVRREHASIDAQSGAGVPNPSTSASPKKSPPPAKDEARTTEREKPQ
The data set can be described thus: Fluor-de-Lys biochemical sirtuin deacetylation assay, SIRT2. To be noted: 10 μM.

As to `CN(c1ccc([S+](C)[O-])cc1)S(=O)(=O)c1cc(C(=O)Nc2ccc(C#N)cc2)ccn1` (centres unmarked) [Compound 203Ar, N-(4-cyanophenyl)-2-(N-methyl-N-(4-(methylsulfinyl)phenyl)sulfamoyl)-isonicotinamide], the melting point (usually the temperature, or range, at which the solid turns liquid) is 243 to 245 °C (dec.). At SIRT2, the inhibition (commonly the percentage by which the read-out fell short of the control) at 10 µM was 20%.
The like results for `CN(c1ccc(S(C)(=O)=O)cc1)S(=O)(=O)c1cc(C(=O)Nc2ccc(C#N)cc2)ccn1` [Compound 203As, N-(4-cyanophenyl)-2-(N-methyl-N-(4-(methylsulfonyl)phenyl)sulfamoyl)-isonicotinamide] were, in that order, 224 to 226 °C and 33%.
Regarding `N#Cc1ccc(NC(=O)c2cccc(S(=O)(=O)N(c3ccc(Cl)cc3)C3CC3)c2)cc1` [Compound 203Av, 3-(N-(4-chlorophenyl)-N-cyclopropylsulfamoyl)-N-(4-cyanophenyl)benzamide], the melting point was in the range of 180 to 182 °C. For the same molecule, 10 µM produced 51% inhibition against SIRT2.
`CC(=O)c1ccc(N(C2CC2)S(=O)(=O)c2cccc(C(=O)Nc3ccc(C#N)cc3)c2)cc1` [Compound 203Aw, 3-(N-(4-acetylphenyl)-N-cyclopropylsulfamoyl)-N-(4-cyanophenyl)benzamide]: the melting point fell in the range of 185 to 186 °C. Further, 10 µM produced 61% inhibition against SIRT2.
For `CCN(c1ccc(O)cc1)S(=O)(=O)c1cccc(C(=O)Nc2ccc(C#N)cc2)c1` [Compound 203Ay, N-(4-cyanophenyl)-3-(N-ethyl-N-(4-hydroxyphenyl)sulfamoyl)benzamide] the same measures were 102 to 104 °C and 40%.
For `CCOc1ccc(N(CC)S(=O)(=O)c2cccc(C(=O)Nc3ccc(C#N)cc3)c2)cc1` [Compound 203Az, N-(4-cyanophenyl)-3-(N-(4-ethoxyphenyl)-N-ethylsulfamoyl)benzamide], the melting point lay within 168 to 169 °C. The same molecule came in with an inhibition at 10 µM at SIRT2 of 59%.
Molecule `CCN(c1ccc(OC)cc1)S(=O)(=O)c1cccc(C(=O)Nc2ccc(C#N)cc2)c1` [Compound 203Ba, N-(4-cyanophenyl)-3-(N-ethyl-N-(4-methoxyphenyl)sulfamoyl)benzamide] displayed a melting point of 168 to 169 °C. The same molecule had an inhibition at 10 µM on SIRT2 of 53%.
With `Cc1cc(Br)ccc1NC(=O)c1cccc(S(=O)(=O)N2CCCCCC2)c1` [Compound 203b, 3-(azepan-1-ylsulfonyl)-N-(4-bromo-2-methylphenyl)benzamide], the melting point was in the range of 177 to 179 °C. At SIRT2, this molecule showed an inhibition at 10 µM of 0%.
Consider `CCCN(CCC)S(=O)(=O)c1cccc(C(=O)Nc2ccc(Br)cc2C)c1` [Compound 203c, N-(4-bromo-2-methylphenyl)-3-(N,N-dipropylsulfamoyl)benzamide], for which the melting point lay in the range of 135 to 136 °C. Moreover, the inhibition at 10 µM at SIRT2 stood at 0%.
For `CCCN(CCC)S(=O)(=O)c1cccc(C(=O)Nc2ccc(Br)cc2)c1` [Compound 203d, N-(4-bromophenyl)-3-(N,N-dipropylsulfamoyl)benzamide] the same measures were 160 to 162 °C and 9%.
`CCCN(CCC)S(=O)(=O)c1cccc(C(=O)Nc2cccc(Br)c2)c1` [Compound 203f, N-(3-bromophenyl)-3-(N,N-dipropylsulfamoyl)benzamide] showed a melting point of 105 to 107 °C. Further, the inhibition at 10 µM at SIRT2 was 60%.
Take `CCCN(CCC)S(=O)(=O)c1cccc(C(=O)Nc2cccc([N+](=O)[O-])c2)c1` [Compound 203h, 3-(N,N-dipropylsulfamoyl)-N-(3-nitrophenyl)benzamide]: the melting point fell in the range of 126 to 128 °C. The same molecule yielded an inhibition at 10 µM on SIRT2 of 50%.
Turning to `CC(=O)Nc1cccc(NC(=O)c2cccc(S(=O)(=O)N3CCCCCC3)c2)c1` [Compound 203k, N-(3-acetamidophenyl)-3-(azepan-1-ylsulfonyl)benzamide], the melting point was in the range of 117 to 120 °C. Further, the inhibition at 10 µM on SIRT2 came to 59%.
For `Cc1cc(Cl)ccc1N(C)C(=O)c1cccc(S(=O)(=O)N(C)c2ccc(Br)cc2)c1` [Compound 203l, 3-(N-(4-bromophenyl)-N-methylsulfamoyl)-N-(4-chloro-2-methylphenyl)-N-methylbenzamide] the same measures were 124 to 125 °C and 25%.
`Cc1cc(F)ccc1N(C)C(=O)c1cccc(S(=O)(=O)N(C)c2ccc(Br)cc2)c1` [Compound 203m, 3-(N-(4-bromophenyl)-N-methylsulfamoyl)-N-(4-fluoro-2-methylphenyl)-N-methylbenzamide] had a melting point of 104 to 105 °C. Moreover, 10 µM produced 28% inhibition on SIRT2.
For `Cc1cc(Cl)ccc1NC(=O)c1cccc(S(=O)(=O)N(C)c2ccc(Br)cc2)c1` [Compound 203n, 3-(N-(4-bromophenyl)-N-methylsulfamoyl)-N-(4-chloro-2-methylphenyl)benzamide], the melting point lay within 163 to 164 °C. Also, the inhibition at 10 µM against SIRT2 was found to be 18%.
Take `Cc1cc(F)ccc1NC(=O)c1cccc(S(=O)(=O)N(C)c2ccc(Br)cc2)c1` [Compound 203o, 3-(N-(4-bromophenyl)-N-methylsulfamoyl)-N-(4-fluoro-2-methylphenyl)benzamide]: the melting point was 163 to 165 °C. On SIRT2, at 10 µM the inhibition was 14%.
As for `CN(c1ccc(Br)cc1)S(=O)(=O)c1cccc(C(=O)Nc2ccc(Cl)cc2F)c1` [Compound 203q, 3-(N-(4-bromophenyl)-N-methylsulfamoyl)-N-(4-chloro-2-fluorophenyl)benzamide], the melting point lay in the range of 117 to 118 °C. At SIRT2, this molecule gave an inhibition at 10 µM of 29%.
`CN(c1ccc(Br)cc1)S(=O)(=O)c1cccc(C(=O)Nc2ccc(F)cc2F)c1` [Compound 203u, 3-(N-(4-bromophenyl)-N-methylsulfamoyl)-N-(2,4-difluorophenyl)benzamide] yielded a melting point of 119 to 120 °C. Also, testing at 10 µM against SIRT2 gave an inhibition of 22%.
The like results for `CN(c1ccc(Cl)cc1)S(=O)(=O)c1cccc(C(=O)Nc2ccc(Br)cc2F)c1` [Compound 203w, N-(4-bromo-2-fluorophenyl)-3-(N-(4-chlorophenyl)-N-methylsulfamoyl)benzamide] were, in that order, 126 to 127 °C and 31%.
For `CN(c1ccc(Cl)cc1)S(=O)(=O)c1cccc(C(=O)Nc2ccc(Cl)cc2C#N)c1` [Compound 203x, N-(4-chloro-2-cyanophenyl)-3-(N-(4-chlorophenyl)-N-methylsulfamoyl)benzamide] the same measures were 157 to 158 °C and 15%.
For `CN(c1ccc(Cl)cc1)S(=O)(=O)c1cccc(NC(=O)c2ccc(Br)cc2)c1` [Compound 207a, 4-bromo-N-(3-(N-(4-chlorophenyl)-N-methylsulfamoyl)phenyl)benzamide] the same measures were 187 to 189 °C and 28%.
`CN(c1ccc(S(C)(=O)=O)cc1)S(=O)(=O)c1cccc(NC(=O)c2ccc(Br)cc2)c1` [Compound 207b, 4-bromo-N-(3-(N-methyl-N-(4-(methylsulfonyl)phenyl)sulfamoyl)phenyl)benzamide] had a melting point of 216 to 218 °C. On SIRT2, the inhibition at 10 µM was 57%.
Molecule `CN(c1ccc(S(C)(=O)=O)cc1)S(=O)(=O)c1cccc(NC(=O)c2ccc([S+](C)[O-])cc2)c1` (centres unmarked) [Compound 207c, N-(3-(N-methyl-N-(4-(methylsulfonyl)phenyl)sulfamoyl)phenyl)-4-(methylsulfinyl)benzamide] yielded a melting point of 184 to 186 °C. This molecule also came in with an inhibition at 10 µM at SIRT2 of 47%.
With `CN(c1ccc(S(C)(=O)=O)cc1)S(=O)(=O)c1cccc(NC(=O)c2ccc(S(C)(=O)=O)cc2)c1` [Compound 207d, N-(3-(N-methyl-N-(4-(methylsulfonyl)phenyl)sulfamoyl)phenyl)-4-(methylsulfonyl)benzamide], the melting point was 213 to 215 °C (dec.). The molecule also gave an inhibition at 10 µM at SIRT2 of 26%.
Molecule `CSc1ccc(CSc2cccc(C(=O)Nc3ccc(C#N)cn3)c2)cc1` [Compound 211a, N-(5-cyanopyridin-2-yl)-3-((4-(methylthio)benzyl)thio)benzamide] had a melting point of 161 to 162 °C. In addition, testing at 10 µM against SIRT2 gave an inhibition of 63%.
Regarding `CSc1ccc(CSc2cccc(C(=O)Nc3ccc(Cl)cn3)c2)cc1` [Compound 211b, N-(5-chloropyridin-2-yl)-3-((4-(methylthio)benzyl)thio)benzamide], the melting point lay in the range of 159 to 161 °C. This molecule also came in with an inhibition at 10 µM at SIRT2 of 42%.
In turn, `COc1ccc(CSc2cccc(C(=O)Nc3ccc(C#N)cc3)c2)cc1` [Compound 211c, N-(4-cyanophenyl)-3-((4-methoxybenzyl)thio)benzamide] yielded a melting point of 167 to 169 °C. This molecule also registered an inhibition at 10 µM against SIRT2 of 69%.
Take `COc1ccc(CSc2cccc(C(=O)Nc3ccc(C#N)cn3)c2)cc1` [Compound 211d, N-(5-cyanopyridin-2-yl)-3-((4-methoxybenzyl)thio)benzamide]: the melting point was in the range of 163 to 164 °C. This molecule had an inhibition at 10 µM on SIRT2 of 46%.
As to `N#Cc1ccc(NC(=O)c2ccnc(SCc3ccc(F)cc3)c2)cc1` [Compound 211e, N-(4-cyanophenyl)-2-((4-fluorobenzyl)thio)isonicotinamide], the melting point fell in the range of 160 to 162 °C. The same molecule had an inhibition at 10 µM against SIRT2 of 74%.
`COc1ccc(CSc2cc(C(=O)Nc3ccc(C#N)cc3)ccn2)cc1` [Compound 211f, N-(4-cyanophenyl)-2-((4-methoxybenzyl)thio)isonicotinamide]: the melting point fell in the range of 201 to 203 °C. Moreover, the inhibition at 10 µM against SIRT2 worked out at 68%.
